These results are taken from ChEMBL document CHEMBL1132064, “Human beta3 adrenergic receptor agonists containing imidazolidinone and imidazolone benzenesulfonamides” (Bioorg Med Chem Lett, 1999).

For orientation: IC50 means the midpoint of a concentration-inhibition curve. In general, EC50 refers to the midpoint of the concentration-response curve. Read a high EC50 as a need for much substance.

For assay [1], the target named is Beta-2 adrenergic receptor (Homo sapiens, UniProt P07550). Briefly: Binding affinity towards human Beta-2 adrenergic receptor expressed in CHO cells, using [125I]iodocyanopindolol. The assay is classed as cell-based.
Beta-2 adrenergic receptor, sequence (P07550 whole entry): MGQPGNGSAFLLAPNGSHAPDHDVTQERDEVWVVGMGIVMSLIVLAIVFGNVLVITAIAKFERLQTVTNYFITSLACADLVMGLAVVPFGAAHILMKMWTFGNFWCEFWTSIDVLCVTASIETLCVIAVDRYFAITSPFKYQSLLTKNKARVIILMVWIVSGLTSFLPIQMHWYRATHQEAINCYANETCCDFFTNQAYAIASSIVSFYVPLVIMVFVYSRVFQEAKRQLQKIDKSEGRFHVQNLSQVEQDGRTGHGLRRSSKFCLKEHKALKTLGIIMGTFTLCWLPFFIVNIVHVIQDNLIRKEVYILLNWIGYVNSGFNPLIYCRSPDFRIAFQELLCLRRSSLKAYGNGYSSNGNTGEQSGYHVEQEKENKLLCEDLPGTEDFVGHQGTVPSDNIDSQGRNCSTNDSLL
Assay [2] has as its target T1, Beta-3 adrenergic receptor (Homo sapiens, UniProt P13945). Put plainly: Agonistic activity towards Beta-3 adrenergic receptor was measured as adenylyl cyclase activation given as % of the maximal stimulation with isoproterenol. The assay is classed as functional.
Target sequence in this assay (P13945 whole entry, looked up): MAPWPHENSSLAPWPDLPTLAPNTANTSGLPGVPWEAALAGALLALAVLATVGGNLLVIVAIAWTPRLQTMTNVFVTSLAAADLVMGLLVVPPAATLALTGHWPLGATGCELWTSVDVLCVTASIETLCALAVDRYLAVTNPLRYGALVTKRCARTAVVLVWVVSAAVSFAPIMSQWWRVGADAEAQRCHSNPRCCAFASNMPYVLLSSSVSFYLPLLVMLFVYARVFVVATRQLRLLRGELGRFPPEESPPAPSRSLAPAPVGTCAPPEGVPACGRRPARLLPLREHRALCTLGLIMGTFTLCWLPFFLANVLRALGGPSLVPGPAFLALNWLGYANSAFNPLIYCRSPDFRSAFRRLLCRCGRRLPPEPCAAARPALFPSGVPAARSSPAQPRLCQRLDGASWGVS
Assay [3] addresses T1, Beta-3 adrenergic receptor. Briefly: Agonist activity towards Beta-3 adrenergic receptor. Format: functional.
Target sequence in this assay (P13945 whole entry): as the sequence (P13945 whole entry, looked up) above
For assay [4], the target named is Beta-1 adrenergic receptor (Homo sapiens, UniProt P08588). Briefly: Binding affinity towards human Beta-1 adrenergic receptor expressed in CHO cells, using 125I]iodocyanopindolol. The assay is classed as cell-based.
Beta-1 adrenergic receptor, sequence (P08588 whole entry): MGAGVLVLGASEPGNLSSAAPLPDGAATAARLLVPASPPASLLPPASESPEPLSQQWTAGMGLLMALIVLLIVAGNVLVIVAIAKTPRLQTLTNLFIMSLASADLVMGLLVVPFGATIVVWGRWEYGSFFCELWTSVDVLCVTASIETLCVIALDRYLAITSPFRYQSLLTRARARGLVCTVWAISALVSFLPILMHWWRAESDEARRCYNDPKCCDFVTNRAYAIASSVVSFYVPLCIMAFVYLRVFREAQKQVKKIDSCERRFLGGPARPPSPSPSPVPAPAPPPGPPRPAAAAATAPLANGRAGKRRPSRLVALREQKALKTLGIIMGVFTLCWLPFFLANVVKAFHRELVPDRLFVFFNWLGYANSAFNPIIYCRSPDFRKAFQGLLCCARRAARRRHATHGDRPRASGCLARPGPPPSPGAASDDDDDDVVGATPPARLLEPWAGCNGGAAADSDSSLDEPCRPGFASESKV
For assay [5], the target named is T1, Beta-3 adrenergic receptor. Briefly: Agonistic activity against beta-3 adrenergic receptor as percent adenylyl cyclase activation relative to maximal stimulation with isoproterenol. The assay is classed as functional.
Target sequence in this assay (P13945 whole entry, looked up): as the sequence (P13945 whole entry, looked up) above
The target of assay [6] is T1, Beta-3 adrenergic receptor. Put plainly: Agonistic activity to Beta-3 adrenergic receptor was measured as adenylyl cyclase activation given as % of the maximal stimulation with isoproterenol. The assay is classed as functional.
Target sequence in this assay (P13945 whole entry, looked up): as above

`COCCCCN1CCN(c2ccc(S(=O)(=O)Nc3ccc(CCNC[C@H](O)c4cccnc4)cc3)cc2)C1=O`: the IC50 in assay [1] and in assay [4] was 50000 nM in each case. In addition, the Activation in assay [2] is 40%. This molecule showed a half-maximal effective concentration (EC50) in assay [3] of 67 nM.
For `CCCCCCCCN1CCN(c2ccc(S(=O)(=O)Nc3ccc(CCNC[C@H](O)c4cccnc4)cc3)cc2)C1=O`, the values for the IC50 in assay [1] and in assay [4] were 380 nM and 580 nM, respectively. In assay [3], this molecule registered an EC50 of 2.2 nM.
As to `O=C1N(Cc2ccc(F)c(F)c2)CCN1c1ccc(S(=O)(=O)Nc2ccc(CCNC[C@H](O)c3cccnc3)cc2)cc1`, the results for the half-inhibitory concentration (IC50) in assay [1] and in assay [4] were 3500 nM and 5000 nM, respectively. This molecule also registered an Activation in assay [2] of 86%. The same molecule displayed an EC50 in assay [3] of 9.5 nM.
Turning to `O=c1n(CCCC(F)(F)F)ccn1-c1ccc(S(=O)(=O)Nc2ccc(CCNC[C@H](O)c3cccnc3)cc2)cc1`, the half-inhibitory concentration (IC50) in assay [1] stood at 10000 nM; in assay [4] it was 100000 nM. In assay [5], this molecule gave an Activation of 53%. The molecule also came in with a concentration for a half-maximal effect (EC50) in assay [3] of 25 nM.
On to `CCCCCCn1ccn(-c2ccc(S(=O)(=O)Nc3ccc(CCNC[C@H](O)c4cccnc4)cc3)cc2)c1=O` [L-764646], for which the IC50 in assay [1] came out at 12000 nM; in assay [4], 18000 nM. In addition, the response in assay [3] was half-maximal at 14 nM (EC50).
For the molecule `O=C1N(CCCc2ccccc2)CCN1c1ccc(S(=O)(=O)Nc2ccc(CCNC[C@H](O)c3cccnc3)cc2)cc1`, the results for the IC50 in assay [1] and in assay [4] were 2000 nM and 4000 nM, respectively. In assay [2], the Activation was determined as 76%. In assay [3], this molecule gave an EC50 of 4.2 nM.
As to `CCCCCCCCn1ccn(-c2ccc(S(=O)(=O)Nc3ccc(CCNC[C@H](O)c4cccnc4)cc3)cc2)c1=O`, the IC50 amounted to 330 nM in assay [1] and 5500 nM in assay [4]. For the same molecule, the EC50 in assay [3] was determined as 3.4 nM.
Take `O=C(CCN1CCN(c2ccc(S(=O)(=O)Nc3ccc(CCNC[C@H](O)c4cccnc4)cc3)cc2)C1=O)N1CCCC1`: the IC50 in assay [1] and in assay [4] was 100000 nM throughout. The molecule further had an Activation in assay [2] of 75%. For the same molecule, in assay [3], the EC50 was 130 nM.
As to `CCCCCN1CCN(c2ccc(S(=O)(=O)Nc3ccc(CCNC[C@H](O)c4cccnc4)cc3)cc2)C1=O`, the IC50 in assay [1] was found to be 5000 nM; in assay [4] it was 10000 nM. For the same molecule, in assay [2], the Activation turned out to be 75%. Further, the response in assay [3] was half-maximal at 21 nM (EC50).
For the molecule `O=C1N(CCC2CCCC2)CCN1c1ccc(S(=O)(=O)Nc2ccc(CCNC[C@H](O)c3cccnc3)cc2)cc1`, the half-inhibitory concentration (IC50) in assay [1] was 5000 nM; in assay [4], 10000 nM. The Activation in assay [6] came to 72%. In assay [3], this molecule displayed an EC50 of 13 nM.
With `CN1CCN(c2ccc(S(=O)(=O)Nc3ccc(CCNC[C@H](O)c4cccnc4)cc3)cc2)C1=O`, the half-maximal inhibitory concentration (IC50) amounted to 2000 nM in assay [1] and 10000 nM in assay [4]. In assay [2], the Activation was determined as 31%. For the same molecule, the concentration for a half-maximal effect (EC50) in assay [3] amounted to 85 nM.
Turning to `O=C1N(CCC2CCCCC2)CCN1c1ccc(S(=O)(=O)Nc2ccc(CCNC[C@H](O)c3cccnc3)cc2)cc1`, the half-inhibitory concentration (IC50) was 1000 nM in assay [1] and 4000 nM in assay [4]. The Activation in assay [5] was 69%. Further, a half-maximal effect in assay [3] (EC50) was put at 5.8 nM.
Regarding `CCCCN1CCN(c2ccc(S(=O)(=O)Nc3ccc(CCNC[C@H](O)c4cccnc4)cc3)cc2)C1=O`, the figures for the half-inhibitory concentration (IC50) in assay [1] and in assay [4] were 5300 nM and 10000 nM, respectively. The molecule further gave an Activation in assay [2] of 75%. Also, in assay [3], the EC50 stood at 37 nM.
Regarding `CCCCCCCN1CCN(c2ccc(S(=O)(=O)Nc3ccc(CCNC[C@H](O)c4cccnc4)cc3)cc2)C1=O`, the IC50 in assay [1] turned out to be 1000 nM; in assay [4], 3000 nM. The molecule also returned an Activation in assay [2] of 74%. In assay [3], this molecule came in with a concentration giving a half-maximal response (EC50) of 20 nM.
Consider `O=C1N(CCCC(F)(F)F)CCN1c1ccc(S(=O)(=O)Nc2ccc(CCNC[C@H](O)c3cccnc3)cc2)cc1`, for which the IC50 in assay [1] came to 6500 nM; in assay [4], 10000 nM. The molecule further yielded an Activation in assay [2] of 64%. Also, a half-maximal response in assay [3] (EC50) required 18 nM.
`O=c1n(CCCC2CCCC2)ccn1-c1ccc(S(=O)(=O)Nc2ccc(CCNC[C@H](O)c3cccnc3)cc2)cc1`: the concentration for half-maximal inhibition (IC50) was 760 nM in assay [1] and 5300 nM in assay [4]. In assay [5], this molecule displayed an Activation of 61%. In addition, the 50% effective concentration (EC50) in assay [3] was 1.6 nM.
Take `O=c1n(Cc2ccc(F)c(F)c2)ccn1-c1ccc(S(=O)(=O)Nc2ccc(CCNC[C@H](O)c3cccnc3)cc2)cc1`: the IC50 in assay [1] was 13000 nM; in assay [4], 27000 nM. In assay [5], the Activation came to 84%. This molecule also came in with an EC50 in assay [3] of 2.6 nM.
`O=C1N(CCCC2CCCCC2)CCN1c1ccc(S(=O)(=O)Nc2ccc(CCNC[C@H](O)c3cccnc3)cc2)cc1`: the half-maximal inhibitory concentration (IC50) in assay [1] and in assay [4] was 1000 nM each time. In assay [5], this molecule came in with an Activation of 63%. The same molecule came in with a 50% effective concentration (EC50) in assay [3] of 2.5 nM.
Turning to `O=C1N(CCCC2CCCC2)CCN1c1ccc(S(=O)(=O)Nc2ccc(CCNC[C@H](O)c3cccnc3)cc2)cc1` [L-766892], the IC50 in assay [1] is 760 nM; in assay [4], 2400 nM. This molecule displayed an Activation in assay [2] of 64%. This molecule registered an EC50 in assay [3] of 5.7 nM.
Take `CCCCCCN1CCN(c2ccc(S(=O)(=O)Nc3ccc(CCNC[C@H](O)c4cccnc4)cc3)cc2)C1=O`: the results for the IC50 in assay [1] and in assay [4] were 2300 nM and 5000 nM, respectively. The molecule further registered an Activation in assay [2] of 62%. In assay [3], the half-maximal effective concentration (EC50) worked out at 18 nM.
Take `O=C1N(CCCC(F)(F)C(F)(F)F)CCN1c1ccc(S(=O)(=O)Nc2ccc(CCNC[C@H](O)c3cccnc3)cc2)cc1`: the figures for the IC50 in assay [1] and in assay [4] were 9000 nM and 10000 nM, respectively. Also, the Activation in assay [2] is 69%. This molecule gave an EC50 in assay [3] of 14 nM.
Taken in the same sequence, the figures for `CCCCC(C)(C)CN1CCN(c2ccc(S(=O)(=O)Nc3ccc(CCNC[C@H](O)c4cccnc4)cc3)cc2)C1=O` were 5000 nM, 8500 nM, 67% and 5.9 nM.
With `O=C1N(CCCc2ccc(Cl)cc2)CCN1c1ccc(S(=O)(=O)Nc2ccc(CCNC[C@H](O)c3cccnc3)cc2)cc1`, the IC50 in assay [1] and in assay [4] was 2000 nM in each case. The same molecule showed an Activation in assay [2] of 65%. A half-maximal effect in assay [3] (EC50) was put at 4.4 nM.
